The values that follow come from patent US20240366594A1, “Small Molecule Inhibitors of Formation of Neutrophil-Derived Extracellular Traps (NETosis) and Uses Thereof” (The Brigham and Women's Hospital, Inc., priority 2021, published 2024).

The subject of the assay is mice challenged with LPS. The assay can be described thus: In vivo LPS-induced septic shock. As to conditions: for platelet counts in the blood: 2 h post LPS challenge, compared with LPS alone, FIGS. 4C, 8D; for pro-inflammatory cytokine production (serum, ELISA): FIGS. 4E-4G; for neutrophils levels (blood and peritoneal lavage): FIGS. 8A-8C; for release of NETs by neutrophils in the peritoneal lavage (CitH3-positive neutrophils): cytofluorimetry, FIG. 4D; for body temperature 2 h post challenge: ricolinostat 30 mg/kg/dose or GSK484 25 mg/kg/dose i.p., FIG. 4B. More on the design: species or system mouse. The protocol: FIGS. 4A-G. Class I/IIb HDAC inhibition protects against systemic inflammation • (A) Time line of drug treatment and LPS priming and challenge. Mice were intraperitoneally injected, or not, with two doses of ricolinostat or GSK484 and were then intraperitoneally administered with two doses of LPS (−5 h, 1 mg/kg and 0 h, 2 mg/kg) to induce lethal sepsis. Peritoneal lavage and blood were collected 2 h after the LPS challenge. • (B) Body temperature was measured 2 h post challenge. • (C) Concentration of platelets in the blood was measured by cytofluorimetry. • (D) NETosis was measured as neutrophils (Ly6G+/CD11b+) positive for citrullinated histone H3 staining in the peritoneal lavage. • (E-G) Serum cytokines were measured by ELISA. […] Statistics were calculated using one-way ANOVA (*p<0.05; ** p<0.01; *** p<0.001; ****p<0.0001; n.s., not significant). n=15 for each group except the GSK484-treated group (n=10). Gray stars represent comparison of all experimental groups with the saline-treated healthy control. Black stars represent comparison of drug-treated groups with LPS-stimulated mice without drug treatment. Violin plots represent median (dashed line) with quartiles (dotted line). See also FIGS. 8A-F.
FIGS. 8A-F. Class I/IIb HDAC inhibition protects against systemic inflammation. • A-C) Neutrophils numbers and percentage were calculated in blood (A, B) and peritoneal lavage (C) of mice challenged, or not, with LPS. Saline group represent healthy mice. NT group represent mice that were challenged with LPS without receiving any drug. Ricolinostat (30 mg/kg/dose) or GSK484 (25 mg/kg/dose) were administered intraperitoneally at day −1, and 2 hour prior LPS priming. • D) Concentration of platelets in the blood was assessed by cytofluorimetry 2 hours post LPS-challenge. • E, F) Absolute amounts of serum cytokines were measured by ELISA. Violin plots represent median (dashed line) with quartiles (dotted line). Statistics were calculated using One-way ANOVA (*P<0.05; **P<0.01; ***P<0.001; ****P<0.0001; n.s., not significant). Grey stars represent comparison of all experimental groups with the saline control. Black stars represent comparison of drug treated groups with NT group.
Alternatively, neutrophils positive for citrullinated histone H3 were quantified by cytofluorimetry. Briefly, neutrophils from bronco-alveolar lavage fluid or peritoneal lavage fluid were stained for Ly6G, CD11b, CD45 and Zombie dye for 20 minutes at room temperature and then fixed with BD FACS Lysing Solution (cat #349202, BD Biosciences). Samples were washed twice with Intracellular Staining Permeabilization Wash buffer (cat #421002, Biolegend), incubated with anti-citrullinated histone H3 antibody (Abcam) 1 hour at room temperature and subsequently with PE anti-rabbit antibody for 30 minutes. Finally, samples were acquired with BD FACS Fortessa and neutrophils (CD45+/Ly6G+/CD11b+) positive for citrullinated histone H3 were quantified with FlowJo software.
8-week-old female mice were primed with 1 mg/kg of LPS intra peritoneum (i.p.) for 5 hours and then challenged with 2 mg/kg of LPS i.p. Ricolinostat was used at 30 mg/kg/dose, GSK484 at 25 mg/kg/dose and dexamethasone at 10 mg/kg/dose. Drugs were administered i.p. at day −1 and 2 hours prior priming. Blood samples were collected 2 hours post-challenge and cytokines were measured by ELISA. The platelet concentrations and neutrophils numbers in the blood and peritoneal cavity were calculated by cytofluorimetry using CountBright Absolute Cell Counting Beads (Thermo Scientific) according to the manufacturer's instructions. NETosis was measured as quantity of neutrophils in the peritoneal lavage positive for citrullinated histone H3 by cytofluorimetry.

Turning to `COc1cc(C(=O)N2CC[C@@H](O)[C@@H](N)C2)cc2nc(-c3cc4ccccc4n3CC3CC3)n(C)c12` [GSK484], the “platelet counts in the blood” value is reported as “significantly higher”; the “pro-inflammatory cytokine production (serum, ELISA)” value was “significantly decreased”; the “neutrophils levels (blood and peritoneal lavage)” value is “increased neutrophils levels”; the “release of NETs by neutrophils in the peritoneal lavage (CitH3-positive neutrophils)” value was “reduced release of NETs”. Besides, the “body temperature 2 h post challenge” value was “no temperature loss”.

Consider `O=C(CCCCCCNC(=O)c1cnc(N(c2ccccc2)c2ccccc2)nc1)NO` [ricolinostat], for which the “platelet counts in the blood” value was “significantly higher”; the “pro-inflammatory cytokine production (serum, ELISA)” value is “significantly decreased”; the “neutrophils levels (blood and peritoneal lavage)” value is recorded as “increased neutrophils levels”; the “release of NETs by neutrophils in the peritoneal lavage (CitH3-positive neutrophils)” value is “reduced release of NETs”. Moreover, the “body temperature 2 h post challenge” value was “no temperature loss”. For the same compound, the “pro-inflammatory cytokine production (serum, ELISA), comparison with dexamethasone” value (dexamethasone 10 mg/kg/dose, ricolinostat 30 mg/kg/dose, FIGS. 8E and 8F) is “efficiently reduced”.
